Consider 3 molecules from patent US20250325567A1, “COADMINISTRATION OF POLYC[…] AMINE/AMIDE A[…] ENHANCE EFFICACY AGAINST PAIN” (University of Connecticut, priority 2024, published 2025).

Data set [1] can be described thus: Solubility study at different pHs. Format: physicochemical. The note with it: 1 mg in 1 mL of water and ethanol, pH 1 to pH 12. As for the experimental part: A solubility study was conducted on the Dicannabidiol adipate at different pHs. Twelve vials were prepared by placing 1 mg of the dimer in 1 mL of water and ethanol of different pH, from pH 1 to pH 12. […] The hypothesis for the dimer being soluble in basic water is due to the bonding of the base with the phenolic oxygen of the dimer, thus producing the salt and easily solubilizing in water. […] Adipic acid is widely used in food and medicinal applications and is considered compatible and safe in the human body.

A short description of data set [2]: Degradation study: thermal and UV light. Format: physicochemical. As to the method: A degradation study was conducted in two parts: thermal degradation and UV light degradation. In the thermal degradation study, the Dicannabidiol adipate was heated to 175° C. in aerobic and anaerobic conditions and the changes were monitored by 1H NMR spectroscopy. In the UV light exposure study, a sample of Dicannabidiol adipate was kept under environmental conditions and UV light for several days and was constantly monitored by 1H NMR spectroscopy. From the results of the two experiments, it was concluded that the Dicannabidiol adipate is stable against the degradation caused from heat and UV exposure. […] This limits its misuse and abuse. Further, this indicates there will be no need to refrigerate the CBD-adipate dimer drug, and less issues, compared to CBD, with its shipping/handling.

For another data set, the system named is F-11 (neuronal) cells. In words: Dose dependent cytotoxicity towards F-11 neuronal cells. It counts as cell-based. The note with it: F11 cells, 24 hour incubation; for cytotoxicity: up to 20 μM. As to the method: FIG. 4 Dose dependent cytotoxicity of Dicannabidiol (diCBD) adipate and AM1241 towards F-11 (neuronal) cells after 24 hour incubation.
Data set [3] has as its system activated bone marrow macrophages. The experiment in a line: Anti-inflammatory response, pro-inflammatory marker gene expression. Format: cell-based. The settings on record: for IL-1B gene expression / IL-6 gene expression / Nos2 gene expression / TNF-α gene expression: 20 μM. An excerpt: FIG. 5 Anti-inflammatory efficacy of Dicannabidiol (diCBD) adipate and AM1241 towards inflamed bone marrow macrophages.
AM1241 was used as comparison due to its commercial availability.

The subject of the next data set is rat osteoarthritis model. The experiment in a line: Rat osteoarthritis model (monoiodo acetate), mechanical allodynia. Format: in vivo.

“Also recorded” adds a separate entry of the source.

Protocol for rat osteoarthritis model: Briefly, baseline behavioral measurements were quantified prior to induction of osteoarthritis. Monoiodo acetate was used to induce osteoarthritis via intra-articular injection into the rear right knee joint followed 24 hours later by a single intra-articular injection of the designated treatment group (FIG. 9).

For `C=C(C)[C@@H]1CCC(C)=C[C@H]1c1c(O)cc(CCCCC)cc1OC(=O)CCCCC(=O)Oc1cc(CCCCC)cc(O)c1[C@@H]1C=C(C)CC[C@H]1C(=C)C` [Dicannabidiol adipate], the “solubility in acidic conditions” value in data set [1] (acidic) is given as “not soluble”. Further, the “solubility in basic pH” value in data set [1] (basic) is given as “solubilizes”. In addition, the “stability against degradation caused from UV exposure” value in data set [2] (environmental conditions and UV light for several days, monitored by 1H NMR) is reported as “stable”. The “stability against degradation caused from heat” value in data set [2] (heated to 175° C., aerobic and anaerobic, monitored by 1H NMR) was “stable”. In addition, in data set [2] (thermal), the “degradation into psychoactive molecules such as THC” value is given as “does not degrade”. The cell viability entry in the data set with F-11 (neuronal) cells (20 μM) is reported as “above 80%”. Further, the cytotoxicity result in the data set on F-11 (neuronal) cells is listed as “minimal cytotoxicity; also recorded: no cytotoxicity; also recorded: minimal toxicity”. Besides, the cytotoxicity result in the data set with F-11 (neuronal) cells (listed as CBD-adipate dimer) was “minimal dose dependent cell toxicity”. Besides, in data set [3], the “anti-inflammatory effect in vitro” value was “potent anti-inflammatory effect”, the IL-1B gene expression result is reported as “significantly downregulate; also recorded: significant reduction”, the IL-6 gene expression entry is “significantly downregulate; also recorded: significant reduction” and the Nos2 gene expression result is “significantly downregulate; also recorded: significant reduction”. In data set [3], the TNF-α gene expression entry is given as “Neither of these drugs showed any significant effect”.
In the case of `CCCN1CCCC[C@H]1C(=O)Nc1c(C)cccc1C` [Ropivacaine], in the data set on rat osteoarthritis model (after drug is no longer active), the “pain level after the anesthetic action, versus initial pain” value is “more pain”. The molecule further returned a pain free duration in the data set on rat osteoarthritis model (rat model of osteoarthritis) of 2 days.
As to `CN1CCCCC1Cn1cc(C(=O)c2cc([N+](=O)[O-])ccc2I)c2ccccc21` (centres unmarked) [AM1241, reference compound], the cytotoxicity result in the data set with F-11 (neuronal) cells is listed as “significantly increased cytotoxicity”. In data set [3], the IL-1B gene expression result is reported as “significantly downregulate”, the IL-6 gene expression entry is on record as “significantly downregulate”, the Nos2 gene expression entry is given as “significantly downregulate” and the TNF-α gene expression entry is on record as “Neither of these drugs showed any significant effect”.
